Assay results: patent publication US10183015B2, “Heterocyclic compounds and methods of use” (Medivation Technologies LLC, priority 2015, dated 2019)
Values joined by “and” are separate entries in the source; they are usually repeats but may differ in a detail not shown here. Equal values may be shown once.

What was measured:
Type in all cases: in vivo
[1] = tested on: IL-6; test: Short-term Paigen-diet NASH mouse model: liver IL-6 levels
Experimental: To investigate whether Compound #37 prevents the development of pathology associated with NASH and steatosis in an acute exploratory disease model, a study was conducted using a diet-induced acute liver steatosis model in mice. […]
(§1) After acclimation, 8-week old male C57Bl/6J mice (Charles River) weighing about 25 g were randomized in 4 groups according their body weight and treated once daily around noon by oral gavage with vehicle, or Compound #37 at various for 21 days as follows: Group 1: vehicle-20% (2-hydroxypropyl)-β-cyclodextrin (HP-β-CD) (n=10); Group 2: Compound #37, 5 mg/kg (n=10) Group 3: Compound #37, 20 mg/kg (n=10) Group 4: Compound #37, 40 mg/kg (n=10). During the treatment period, body weight and food intake (measured over 24h) were measured 3 times per week and once a week, respectively. During the acclimation, all mice were fed a standard diet (Special Diets Services RM1 (E), product no. 801492) and tap water ad libitum. After the acclimation period, mice were fed until the end of the experiment with a 60% high fat Paigen diet (60 kcal % fat, 1.25% cholesterol, and 0.5% cholate; D11061901, Research Diet) and tap water ad libitum.
The 60% high fat Paigen diet induced accumulation of liver lipids, inflammation, oxidative stress, and then fibrosis.

[2] = tested on: 60% high fat Paigen diet induced NASH mouse model; test: Short-term (21 day) Paigen-diet NASH mouse model: plasma ALT, AST, triglycerides, cholesterol, free fatty acids
Experimental: (§2) To investigate whether Compound #37 prevents the development of pathology associated with NASH and steatosis in an acute exploratory disease model, a study was conducted using a diet-induced acute liver steatosis model in mice. As described below, in this study, C57BL/6J mice were initiated on the Paigen diet and simultaneously treated with Compound #37 (5, 20, and 40 mg/kg/day) or vehicle control (20% HPβCD 10 mL/kg/day) by oral gavage for 21 days.
as §1
One hour after the last dosing (noon), blood was collected by retro-orbital bleeding (maximal volume on EDTA) under isoflurane anesthesia to measure plasma triglycerides, total cholesterol, non-esterified fatty acid, ALT and AST. Mice were then sacrificed by cervical dislocation, and livers were harvested and weighed. Liver samples from the same lobe were dissected, frozen, and analyzed as described below.
Data Analysis. Values are presented as mean±standard error of the mean (sem). To assess the compound effect, treated groups were compared to vehicle with a 1-way ANOVA+Dunnett's post-test. […] For RT-qPCR and score Kruskall-Wallis test was performed with Dunns post-test. For body weight evolution the treated groups were compared to vehicle with a 2-way ANOVA with Bonferroni post-test. For each test, a p<0.05 was considered significant.

[3] = tested on: SREBP1C; test: Short-term Paigen-diet NASH mouse model: hepatic SREBP1C gene expression (RT-qPCR); details: liver, 21 days; for DDct: SREBP1C Dct relative to vehicle mean; for Dct: SREBP1C minus 18S; for 2DDct: SREBP1C relative expression to vehicle group, normalized to 18S; for SREBP1C: raw RT-qPCR value
Experimental: as §2, §1
(§3) Gene expression analysis. Hepatic expression levels of genes involved in lipid metabolism (FAS, SREBP1, ACC1, SCD1), cholesterol metabolism (HMG-CoAR, LDLR), SREBP proteolysis (SCAP, INSIG1), ER stress (PERK), oxidative stress (NRF2), inflammation (MCP-1), and fibrosis (collagen 1α1) were quantified by RTqPCR. Expression level was normalized to 18S gene expression and relative expression to vehicle group was calculated with the […] method.

[4] = tested on: HMGCoA; test: Short-term Paigen-diet NASH mouse model: hepatic HMGCoA (HMG-CoAR) gene expression (RT-qPCR); details: liver; for DDct: HMGCoA Dct relative to vehicle mean; for Dct: HMGCoA minus 18S; for 2DDct: HMGCoA relative expression to vehicle group, normalized to 18S; for HMGCoA: raw RT-qPCR value
Experimental: as §2, §1, §3

[5] = tested on: SCAP; test: Short-term Paigen-diet NASH mouse model: hepatic SCAP gene expression (RT-qPCR); details: liver, 21 days; for DDct: SCAP Dct relative to vehicle mean; for Dct: SCAP minus 18S; for 2DDct: SCAP relative expression to vehicle group, normalized to 18S; for SCAP: raw RT-qPCR value
Experimental: as §2, §1, §3

[6] = 5 mg/kg p.o. daily, 21 days of diet and treatment, group mean
[7] = 5 mg/kg p.o. daily, 21 days of diet and treatment, individual animals
[8] = 20 mg/kg p.o. daily, 21 days of diet and treatment, group mean
[9] = 20 mg/kg p.o. daily, 21 days of diet and treatment, individual animals
[10] = 40 mg/kg p.o. (stopped after 4 administrations), 9 days of diet, group mean
[11] = 40 mg/kg p.o. (stopped after 4 administrations), 9 days of diet, individual animals
[12] = Compound #37 5 mg/kg, group mean, n=10
[13] = Compound #37 5 mg/kg, individual animals, 5 mg/kg
[14] = Compound #37 20 mg/kg, group mean, n=6
[15] = Compound #37 20 mg/kg, individual animals, 20 mg/kg

## CC(C)Cc1cc(-c2nc(-c3ccc(NS(=O)(=O)C(F)(F)F)cc3Cl)cs2)ccn1 [Compound 37, N-(3-chloro-4-(2-(2-isobutylpyridin-4-yl)thiazol-4-yl)phenyl)-1,1,1-trifluoromethanesulfonamide]
[1]; 5 mg/kg, 21 days, group mean
  IL-6 (pg/mg tissue): 1012 pg/mg tissue
[1]; 5 mg/kg, 21 days, individual animals
  IL-6 (pg/mg tissue): 1444 pg/mg tissue and 845 pg/mg tissue and 1107 pg/mg tissue and 650 pg/mg tissue and 1305 pg/mg tissue and 957 pg/mg tissue and 770 pg/mg tissue and 1296 pg/mg tissue and 883 pg/mg tissue and 863 pg/mg tissue
[1]; 20 mg/kg, 21 days, group mean
  IL-6 (pg/mg tissue): 817 pg/mg tissue
[1]; 20 mg/kg, 21 days, individual animals
  IL-6 (pg/mg tissue): 904 pg/mg tissue and 737 pg/mg tissue and 760 pg/mg tissue and 705 pg/mg tissue and 970 pg/mg tissue and 826 pg/mg tissue
[1]; 40 mg/kg, 9 days, group mean
  IL-6 (pg/mg tissue): 669 pg/mg tissue
[1]; 40 mg/kg, 9 days, individual animals
  IL-6 (pg/mg tissue): 1005 pg/mg tissue and 569 pg/mg tissue and 535 pg/mg tissue and 566 pg/mg tissue
[2]; [6]
  ALT (U/L): 419.3 U/L
  AST (U/L): 449.4 U/L
  AST/ALT ratio: 1.2
[2]; [7]
  ALT (U/L): 382 U/L and 620 U/L and 346 U/L and 825 U/L and 267 U/L and 246 U/L and 255 U/L and 447 U/L and 435 U/L and 370 U/L
  AST (U/L): 350 U/L and 416 U/L and 710 U/L and 405 U/L and 286 U/L and 392 U/L and 481 U/L and 528 U/L and 477 U/L
  AST/ALT ratio: 0.92 and 1.20 and 0.86 and 1.52 and 1.16 and 1.54 and 1.08 and 1.21 and 1.29
[2]; [8]
  ALT (U/L): 403.5 U/L
  AST (U/L): 431.2 U/L
  AST/ALT ratio: 1.1
[2]; [9]
  ALT (U/L): 266 U/L and 587 U/L and 432 U/L and 413 U/L and 385 U/L and 338 U/L
  AST (U/L): 362 U/L and 467 U/L and 344 U/L and 615 U/L and 424 U/L and 375 U/L
  AST/ALT ratio: 1.36 and 0.80 (2×) and 1.49 and 1.10 and 1.11
[2]; [10]
  ALT (U/L): 7043.8 U/L
  AST (U/L): 2685.0 U/L
  AST/ALT ratio: 0.8
[2]; [11]
  ALT (U/L): 1095 U/L and 1160 U/L and 12560 U/L and 13360 U/L
  AST (U/L): 1165 U/L and 1555 U/L and 3900 U/L and 4120 U/L
  AST/ALT ratio: 1.1 and 1.3 and 0.3 (2×)
[2]; 40 mg/kg, 4 surviving animals, sacrifice on day 9
  mean AST and ALT: > 2500 U/L
[2]; 40 mg/kg, day 9
  ALT and AST levels: very high
[2]; Table B7, 5 mg/kg
  ALT (U/L) Mean: 419.30 U/L
  AST (U/L) Mean: 449.44 U/L
[2]; Table B7, 20 mg/kg
  ALT (U/L) Mean: 403.50 U/L
  AST (U/L) Mean: 431.17 U/L
[3]; [12]
  DDct: 0.26
  Dct: 14
  2DDct: 0.95
  SREBP1C: 26.3
[3]; [13]
  DDct: −0.21 and 0.9 and 0.06 and −0.98 and 1.46 and 1.52 and −0.09 and −0.27 and 0.17 and 0.02
  Dct: 13.57 and 14.68 and 13.84 and 12.8 and 15.24 and 15.3 and 13.69 and 13.51 and 13.95 and 13.8
  2DDct: 1.16 and 0.54 and 0.96 and 1.98 and 0.36 and 0.35 and 1.07 and 1.21 and 0.89 and 0.99
  SREBP1C: 27.03 and 27.79 and 25.45 and 26.15 and 27.27 and 28.65 and 25.29 and 25.3 and 25.09 and 24.92
[3]; [14]
  DDct: −0.13
  Dct: 13.6
  2DDct: 1.29
  SREBP1C: 25.8
[3]; [15]
  DDct: 0.5 and 0.38 and 0.11 and −1.36 and 0.66 and −1.08
  Dct: 14.28 and 14.16 and 13.89 and 12.42 and 14.44 and 12.7
  2DDct: 0.71 and 0.77 and 0.93 and 2.57 and 0.63 and 2.12
  SREBP1C: 27.19 and 26.45 and 26.09 and 25.45 and 25.93 and 23.96
[4]; [12]
  DDct: 0.21
  Dct: 13.1
  2DDct: 0.89
  HMGCoA: 25.3
[4]; [13]
  DDct: −0.39 and 0.32 and 0.09 and −0.08 and 0.87 and 0.63 and −0.03 and 0.10 and 0.35 and 0.20
  Dct: 12.48 and 13.19 and 12.96 and 12.79 and 13.74 and 13.5 and 12.84 and 12.97 and 13.22 and 13.07
  2DDct: 1.31 and 0.80 and 0.94 and 1.05 and 0.55 and 0.64 and 1.02 and 0.93 and 0.78 and 0.87
  HMGCoA: 25.94 and 26.3 and 24.57 and 26.14 and 25.77 and 26.85 and 24.44 and 24.76 and 24.36 and 24.19
[4]; [14]
  DDct: 0.33
  Dct: 13.2
  2DDct: 0.88
  HMGCoA: 25.4
[4]; [15]
  DDct: 0.57 and 1.06 and 0.58 and −0.40 and 0.77 and −0.64
  Dct: 13.44 and 13.93 and 13.45 and 12.47 and 13.64 and 12.23
  2DDct: 0.67 (2×) and 0.48 and 1.32 and 0.58 and 1.55
  HMGCoA: 26.35 and 26.22 and 25.65 and 25.5 and 25.13 and 23.49
[5]; [12]
  DDct: 0.19
  Dct: 12.8
  2DDct: 0.94
  SCAP: 25.1
[5]; [13]
  DDct: −0.7 and 0.72 and −0.1 and −0.18 and 1.21 and 0.7 and 0.27 and −0.21 and −0.02 and 0.17
  Dct: 11.96 and 13.38 and 12.56 and 12.48 and 13.87 and 13.36 and 12.93 and 12.45 and 12.64 and 12.83
  2DDct: 1.62 and 0.61 and 1.07 and 1.13 and 0.43 and 0.62 and 0.83 and 1.16 and 1.01 and 0.89
  SCAP: 25.42 and 26.49 and 24.17 and 25.83 and 25.9 and 26.71 and 24.53 and 24.24 and 23.78 and 23.95
[5]; [14]
  DDct: 0.07
  Dct: 12.7
  2DDct: 1.15
  SCAP: 24.9
[5]; [15]
  DDct: 0.6 and 0.83 and 0.33 and −1.29 and 0.9 and −0.94
  Dct: 13.26 and 13.49 and 12.99 and 11.37 and 13.56 and 11.72
  2DDct: 0.66 and 0.56 and 0.79 and 2.44 and 0.54 and 1.92
  SCAP: 26.17 and 25.78 and 25.19 and 24.4 and 25.05 and 22.98
